Results from ChEMBL document CHEMBL3997771 (Eur J Med Chem, 2017).
Activity calls are given as the source filed them. No cut-off for these calls is given here.

Experiments:
[1] = Selectivity index, ratio of IC50 for HEK293 cells to IC50 for human MCF7 cells; format: functional
[2] = test system: MCF7; experiment: Cytotoxicity against human MCF7 cells assessed as growth inhibition after 72 hrs by MTT assay; format: functional, cell-based; conditions: MCF7, 72 h
[3] = Inhibition of lamb brain tubulin self assembly assessed as decrease in microtubule formation after 10 mins by turbidimetry/spectrometry; parameters: species or system Ovis aries
[4] = test system: A549; experiment: Cytotoxicity against human A549 cells assessed as growth inhibition after 72 hrs by MTT assay; format: functional, cell-based; conditions: A549, 72 h
[5] = test system: HT-29; experiment: Cytotoxicity against human HT-29 cells assessed as growth inhibition after 72 hrs by MTT assay; format: functional, cell-based; conditions: HT-29, 72 h
[6] = organism: Ovis aries; experiment: Induction of abnormal lamb brain tubulin polymer formation at 50 uM by uranyl acetate staining-based transmission electron microscopy
[7] = organism: Ovis aries; experiment: Induction of abnormal lamb brain tubulin polymer formation at 10 uM after 10 mins by turbidimetry
[8] = test system: HEK293; experiment: Cytotoxicity against HEK293 cells assessed as growth inhibition after 72 hrs by MTT assay; format: cell-based; conditions: Homo sapiens, HEK293, 72 h
[9] = Selectivity index, ratio of IC50 for HEK293 cells to IC50 for human A549 cells; format: functional
[10] = organism: Ovis aries; experiment: Binding affinity to lamb brain tubulin after 15 mins by fluorimetric titration method
[11] = Selectivity index, ratio of IC50 for HEK293 cells to IC50 for human HT-29 cells; format: functional
[12] = organism: Ovis aries; experiment: Induction of abnormal lamb brain tubulin polymer formation at 50 uM after 10 mins by turbidimetry
[13] = organism: Ovis aries; experiment: Inhibition of lamb brain tubulin self assembly assessed as decrease in microtubule formation at 10 uM after 10 mins by turbidimetry/spectrometry
[14] = test system: A549; experiment: Cell cycle arrest in human A549 cells assessed as accumulation at G2/M phase at IC50 after 24 hrs by propidium iodide staining-based flow cytometric method; format: functional
[15] = test system: A549; experiment: Induction of microtubule depolymerization in human A549 cells at 100 nM after 4 hrs by immunofluorescence microscopic method; format: cell-based
[16] = organism: Ovis aries; experiment: Binding affinity to lamb brain tubulin-colchicine complex at 20 uM by fluorimetric titration method
[17] = organism: Ovis aries; experiment: Inhibition of lamb brain tubulin self assembly assessed as decrease in microtubule formation at 0.1 uM by uranyl acetate staining-based transmission electron microscopy
[18] = organism: Ovis aries; experiment: Binding affinity to lamb brain tubulin at 10 uM by fluorimetric titration method

| SMILES | Ratio IC50 [1] | IC50 [2] | IC50 [3] | IC50 [4] | IC50 [5] | Activity [6] | Activity [7] | IC50 [8] | Ratio IC50 [9] | Kapp [10] | Ratio IC50 [11] | Activity [12] | inhibition [13] | Activity [14] | Activity [15] | Activity [16] | inhibition [17] | Activity [18] |
| --- | --- | --- | --- | --- | --- | --- | --- | --- | --- | --- | --- | --- | --- | --- | --- | --- | --- | --- |
| CCCCCCCCCCCC(=O)N[C@H]1CCc2cc(OC)c(OC)c(OC)c2-c2ccc(OC)c(=O)cc21 | 0.4 | 0.53 nM | 1210 nM | 71.9 nM | 0.27 nM | Active | Active | 0.23 nM | <0.1 | 19 ×10⁴ /M | 0.9 | Active | – | – | – | – | – | – |
| CCCC(=O)N[C@H]1CCc2cc(OC)c(OC)c(OC)c2-c2ccc(OC)c(=O)cc21 | 1 | 13 nM | – | – | 10 nM | – | – | 13.5 nM | – | – | 1.4 | – | – | – | – | – | – | – |
| CCCCCCCC(=O)N[C@H]1CCc2cc(OC)c(OC)c(OC)c2-c2ccc(OC)c(=O)cc21 | 0.8 | 23 nM | 1080 nM | 133 nM | 1.69 nM | Active | – | 18.9 nM | 0.14 | 5.2 ×10⁴ /M | 11.2 | Active | 80% | – | – | – | – | – |
| COc1cc2c(c(OC)c1OC)-c1ccc(OC)c(=O)cc1[C@@H](NC(C)=O)CC2 [COLCHICINE] | – | – | – | 14 nM | – | – | – | – | – | – | – | – | – | 8% | Active | – | – | – |
| CCCCCCCCCCCCCCCC(=O)N[C@H]1CCc2cc(OC)c(OC)c(OC)c2-c2ccc(OC)c(=O)cc21 | 0.3 | 720 nM | – | – | 184 nM | – | – | 244 nM | – | – | 1.3 | – | – | – | – | – | – | – |
| CCCCCCCCCCCCCC(=O)N[C@H]1CCc2cc(OC)c(OC)c(OC)c2-c2ccc(OC)c(=O)cc21 | 2.3 | 20 nM | – | – | 36 nM | – | – | 46 nM | – | – | 1.3 | – | – | – | – | – | – | – |
| CCCCCC(=O)N[C@H]1CCc2cc(OC)c(OC)c(OC)c2-c2ccc(OC)c(=O)cc21 | 1 | 7.02 nM | 2060 nM | 18 nM | 3.37 nM | – | – | 7.1 nM | 0.39 | 6.4 ×10⁴ /M | 2.1 | Active | Active | – | Active | – | – | – |
| CCCCCCCCCC(=O)N[C@H]1CCc2cc(OC)c(OC)c(OC)c2-c2ccc(OC)c(=O)cc21 | <0.1 | 29 nM | 700 nM | 25 nM | 0.143 nM | – | Active | 0.242 nM | <0.1 | 17.9 ×10⁴ /M | 1.7 | Active | – | – | Active | inactive | Active | Active |
| CCCCCCCCCCCCCCCCCC(=O)N[C@H]1CCc2cc(OC)c(OC)c(OC)c2-c2ccc(OC)c(=O)cc21 | 6.4 | 120 nM | – | – | 1010 nM | – | – | 766 nM | – | – | 0.8 | – | – | – | – | – | – | – |
| CCCCCCCCCCC(=O)N[C@H]1CCc2cc(OC)c(OC)c(OC)c2-c2ccc(OC)c(=O)cc21 | 0.1 | 1.77 nM | 790 nM | 62 nM | 0.041 nM | – | Active | 0.17 nM | <0.1 | 18.4 ×10⁴ /M | 4.2 | Active | – | 41% | – | – | – | – |
| CCCCCCCCCCCCC(=O)N[C@H]1CCc2cc(OC)c(OC)c(OC)c2-c2ccc(OC)c(=O)cc21 | 0.2 | 6.8 nM | – | – | 7 nM | – | – | 1.5 nM | – | – | 0.2 | – | – | – | – | – | – | – |
